Laboratory results taken from patent US12077586B2, “Bispecific antibodies for use in the treatment of hematological malignancies” (LAVA THERAPEUTICS N.V., priority 2018, dated 2024).

Experiments:
healthy B cells = assay: Mixed coculture cytotoxicity (Vγ9Vδ2-T cell: B cell: CLL cell 1:1:1), healthy B cells; type: cell-based, human; conditions: 6 hours
Protocol: (§1) (A) Specific lysis of Jeko-1 cells after pretreatment with mevastatin or pamidronate. […] (B) CD1d expression on B cells from healthy donor PBMCs. (C) Specific lysis of healthy B cells and CLL cells after pretreatment with ABP. Healthy B cells (isolated from healthy donor PBMCs, CFSE-labeled) and CLL cells (isolated from CLL PBMCs, CTV-labeled) were mixed in 1:1 ratio and pretreated with 50 μM pamidronate or medium control for 2 hours. […] (D) Specific lysis of Jeko-1 cells after blockade of CD1d or CD277. Jeko-1 cells were incubated with an anti-CD1d antibody (5 μg/mL), anti-CD277 antibody (10 μg/mL), anti-CD1d and anti-CD277 antibodies, or medium control for 10 minutes. […] Specific lysis is calculated by correcting for background cell death in condition without Vγ9Vδ2-T cells. Data represent mean and SD. *P<0.05, **P<0.01, ***P<0.001. (A: two-way ANOVA followed by Dunnett's post hoc test comparing control vs each pretreatment; C: two-way ANOVA followed by Sidak's post hoc test comparing untreated vs ABP pre-treated D: one-way ANOVA followed by Dunnett's post hoc test compared to medium control).
(§2) If indicated, target cells were pretreated with 25 μM mevastatin (M2537, Sigma-Aldrich), 50 μM aminobisphosphonates (pamidronate, #12J08RD, TEVA Pharmachemie, Haarlem, the Netherlands) or medium control for 2 hours.
(§3) Healthy B cells express low levels of CD1d (FIG. 12B). […]

CLL cells = assay: Mixed coculture cytotoxicity (Vγ9Vδ2-T cell: B cell: CLL cell 1:1:1), CLL cells; type: cell-based, human; conditions: 6 hours
Protocol: as §1, §2, §3

Jeko-1 cells [1] = assay: Cytotoxicity assay with Vγ9Vδ2-T cell lines, Jeko-1 target cells; type: cell-based, human
Protocol: (§4) Target cells were then cocultured overnight with Vγ9Vδ2-T cell lines in a 1:1 ratio unless otherwise indicated. Viability was measured using Mitotracker Orange (25-minute incubation at 37° C., M7510) and To-pro-3 (10-minute incubation at room temperature; T3605, both Thermo Fisher Scientific).
as §2
(§5) If indicated, cells were cultured with the indicated concentrations of all-trans retinoic acid (ATRA; R2625, Sigma-Aldrich) for 48 hours unless otherwise indicated. ATRA was washed away prior to cytotoxicity assays.
If indicated, target cells were pre-incubated with 5 μg/mL anti-CD1d mAb (clone 51.1, 350304, Biolegend, San Diego, CA, USA) and/or 10 μg/mL anti-CD277 mAb (clone 103.2, Creative Biolabs, Shirley, NY, USA) for 10 minutes.

[2] = tested on: CD1d-transfected MM.1s cells; assay: VHH binding to CD1d-transfected MM.1s cells (flow cytometry); set-up: species or system human; conditions: read-out: apparent Kd
primary CLL cells = assay: Cytotoxicity assay with Vγ9Vδ2-T cell lines, primary CLL cells; type: cell-based
Protocol: (§6) (A) Specific lysis of Jeko-1 cell line (n=3). (B) CD1d expression on WT or CD1d-transfected MM.1s cell line (blank histogram: CD1d-stained, grey filled histogram: fluorescence minus one control). (C) Specific lysis of WT or CD1d-transfected MM.1s cell line (n=4). (D) Specific lysis of primary CLL cells with negative, low or high CD1d expression (n=4 per group). Specific lysis is calculated by correcting for background cell death in condition without Vγ9Vδ2-T cells. Data represent mean and SD. *P<0.05, **P<0.01, ****P<0.0001. (A: one-way ANOVA followed by Dunnett's post hoc test compared to untreated condition, C: two-way ANOVA followed by Sidak's post hoc test comparing WT vs CD1d for each concentration, D: two-way ANOVA followed by Tukey's post hoc test comparing each CD1d group for each concentration).
as §4, §5

Vγ9Vδ2-T cells [3] = assay: Cytokine and degranulation assay, Vγ9Vδ2-T cells cocultured with Jeko-1 cells; type: cell-based, human; conditions: bispecific antibody alone, without target cells
[4] = tested on: wildtype CD1d-negative MM.1s cells; assay: Cytotoxicity assay with Vγ9Vδ2-T cell lines, wildtype MM.1s; type: cell-based, human; conditions: overnight coculture with Vγ9Vδ2-T cells
Protocol: as §6, §4

[5] = tested on: CD1d-transfected MM.1s cells; assay: Cytotoxicity assay with Vγ9Vδ2-T cell lines, CD1d-transfected MM.1s; type: cell-based, human; conditions: overnight coculture with Vγ9Vδ2-T cells
Protocol: as §6, §4

[6] = tested on: CLL patient-derived Vγ9Vδ2-T cells; assay: Activation, cytokine and degranulation assay with autologous CLL patient-derived Vγ9Vδ2-T cells; type: cell-based, human
From the text: (§7) (A-C) Activation of and cytokine production and degranulation by patient-derived Vγ9Vδ2-T cells. […] (D) Lysis of primary CLL cells by autologous Vγ9Vδ2-T cells. […] Live CLL cells were quantified by flow cytometry using counting beads (n=5). (E) Expansion of patient-derived Vγ9Vδ2-T cells. […] Percentage Vγ9Vδ2-T cells after 1 week (n=8). Data are presented as mean and SD. *P<0.05, **P<0.01, ***P<0.001. (A-D: one-way ANOVA followed by Dunnett's post hoc test compared to medium control; E: paired t-test).

autologous CLL cells = assay: Cytotoxicity assay with patient-derived Vγ9Vδ2-T cells against autologous CLL cells; type: cell-based, human; conditions: 10 nM; CD3:PBMC 5:1 or 20:1
From the text: as §7
For cytotoxicity assays performed with patient-derived Vγ9Vδ2-T cells, CD3^+ cells were enriched from patient PBMC by magnetic bead selection (130-050-101, Miltenyi Biotec; ≥90% purity). […] Viable cells were then quantified by fluorescence-labeled antibodies and viability dyes in combination with counting beads (01-1234-42, Thermo Fisher Scientific).

[7] = tested on: CLL patient-derived Vγ9Vδ2-T cells; assay: Proliferation assay of CLL patient-derived Vγ9Vδ2-T cells; type: cell-based, human; conditions: 1 week
From the text: as §7
For proliferation assays, PBMCs from CL patients were enriched for T cells by depletion of CD19^+ CLL cells. After attachment of irradiated (30Gy) […] fibroblasts to culture plates, T cell enriched PBMC (≤10% CD19^+) and purified CD19^+ (≥90% CD19^+) PBMC fractions were added in a 2:1 (CD19:CD19^+) ratio.

[8] = tested on: CD1d expression on Jeko-1 cells; assay: CD1d expression on Jeko-1 cells after ATRA treatment; type: cell-based, human; conditions: 48 hours
Protocol: (§8) (A) CD1d expression on Jeko-1 cells after 48 hours of ATRA treatment. (B) Time-curve of CD1d expression upon ATRA treatment (n=3). (C) Viability of Jeko-1 cells after 48 hours of treatment with 100 nM ATRA (n=4). (D) Lysis of Jeko-1 cells after pretreatment with ATRA. […] (E) CD1d expression on primary CLL cells after 48 hours of different concentrations of ATRA or medium control treatment (n=17). (F) Lysis of CLL cells after pretreatment with ATRA. […] Specific lysis is calculated by correcting for background cell death in condition without Vγ9Vδ2-T cells. Data represent mean and SD. *P<0.05, ***P<0.001, ****P<0.0001. (C: paired t-test; D, F: two-way ANOVA followed by Sidak's post hoc test comparing control vs ATRA-treated for each concentration; E: Friedman test followed by Dunnett's post hoc test compared to medium control).
(§9) Cells were stained with antibodies and viability dyes (Table 4) and measured on an LSR Fortessa or FACS Canto cytometer (BD Biosciences, Franklin Lakes, NJ, USA). Samples were analyzed with Flowjo MacV10. Cytofix/Cytoperm reagent was used for detection of intracellular cytokines (BD Biosciences). Relative CD1d expression is defined as geometric MFI (CD1d stained)—geometric MFI (fluorescence minus one).
If indicated, cells were cultured with the indicated concentrations of all-trans retinoic acid (ATRA; R2625, Sigma-Aldrich) for 48 hours unless otherwise indicated. […]

Jeko-1 cells [9] = assay: Viability of Jeko-1 cells after ATRA treatment; type: cell-based, human; conditions: 100 nM ATRA, 48 hours
Protocol: as §8, §5

[10] = tested on: CD1d expression on primary CLL cells; assay: CD1d expression on primary CLL cells after ATRA treatment; type: cell-based, human; conditions: for Increase of CD1d levels: primary CLL cells, 48 hours
Protocol: as §8, §9, §5

Vγ9 chain = target: T1, Vγ9 chain (Homo sapiens, UniProt Q99603, T7A); conditions: Mean Fluorescence Index class; γδ T-cells expressing Vγ9 chain paired with non Vδ2 chain; cited from earlier work
T1 construct: host or cells: γδ T-cells expressing a Vγ9 chain paired with a non-Vδ2 chain
T1 sequence (Q99603 with tags, fused parts or gaps T7A limits assumed): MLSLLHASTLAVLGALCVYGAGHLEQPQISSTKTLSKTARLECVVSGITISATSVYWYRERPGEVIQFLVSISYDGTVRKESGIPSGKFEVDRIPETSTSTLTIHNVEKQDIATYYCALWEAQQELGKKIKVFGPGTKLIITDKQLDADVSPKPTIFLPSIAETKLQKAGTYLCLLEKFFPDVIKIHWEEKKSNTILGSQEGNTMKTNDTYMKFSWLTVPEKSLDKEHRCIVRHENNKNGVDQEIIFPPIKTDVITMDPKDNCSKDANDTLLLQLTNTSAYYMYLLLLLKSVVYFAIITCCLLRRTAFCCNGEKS
T1 sequence (P07766 23-207 partner): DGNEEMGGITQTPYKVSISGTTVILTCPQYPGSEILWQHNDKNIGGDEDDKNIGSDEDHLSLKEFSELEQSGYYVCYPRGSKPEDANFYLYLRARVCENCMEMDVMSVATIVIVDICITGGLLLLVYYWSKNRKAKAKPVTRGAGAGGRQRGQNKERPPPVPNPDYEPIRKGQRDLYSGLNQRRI
T1 sequence (P09693 23-182 partner): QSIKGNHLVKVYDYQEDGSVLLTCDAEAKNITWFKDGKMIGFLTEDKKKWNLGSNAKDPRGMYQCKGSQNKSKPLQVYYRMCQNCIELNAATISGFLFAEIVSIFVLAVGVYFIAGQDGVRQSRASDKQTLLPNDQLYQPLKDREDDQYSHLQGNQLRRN
T1 sequence (P04234 22-171 partner): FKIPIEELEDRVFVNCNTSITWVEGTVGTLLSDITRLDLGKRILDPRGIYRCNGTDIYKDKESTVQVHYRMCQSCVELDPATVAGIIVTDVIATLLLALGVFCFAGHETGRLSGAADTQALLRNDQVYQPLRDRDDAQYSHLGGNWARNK
T1 sequence (P20963 22-164 partner): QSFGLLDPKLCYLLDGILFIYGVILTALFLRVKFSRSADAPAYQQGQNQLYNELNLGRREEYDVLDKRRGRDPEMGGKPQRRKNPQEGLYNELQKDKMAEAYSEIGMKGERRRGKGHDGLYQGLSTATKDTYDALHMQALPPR

Vγ9Vδ2-T cells [11] = conditions: previous work; cited from earlier work
Vδ2 chain = target: T2, Vδ2 chain (Homo sapiens, UniProt A0JD36); conditions: Mean Fluorescence Index class; γδ T-cells expressing Vδ2 chain paired with non Vγ9 chain; cited from earlier work
T2 construct: host or cells: γδ T-cells expressing a Vδ2 chain paired with a non-Vγ9 chain
T2 sequence (A0JD36 with tags, fused parts or gaps): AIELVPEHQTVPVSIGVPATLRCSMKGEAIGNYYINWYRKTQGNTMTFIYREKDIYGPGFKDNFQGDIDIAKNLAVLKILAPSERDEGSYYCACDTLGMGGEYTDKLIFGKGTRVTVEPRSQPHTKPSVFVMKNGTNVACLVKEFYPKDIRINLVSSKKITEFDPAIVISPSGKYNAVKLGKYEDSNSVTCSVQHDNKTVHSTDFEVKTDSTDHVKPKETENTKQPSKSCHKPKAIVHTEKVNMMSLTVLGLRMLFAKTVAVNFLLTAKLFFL
T2 sequence (P07766 23-207 partner): as the sequence (P07766 23-207 partner) above
T2 sequence (P09693 23-182 partner): as the sequence (P09693 23-182 partner) above
T2 sequence (P04234 22-171 partner): as the sequence (P04234 22-171 partner) above
T2 sequence (P20963 22-164 partner): as the sequence (P20963 22-164 partner) above

[12] = tested on: γδ T-cells not expressing any of the Vγ9Vδ2 TCR chains; conditions: Mean Fluorescence Index class; cells not expressing any Vγ9Vδ2 TCR chain; cited from earlier work
complete Vγ9Vδ2 TCR = target: T3, complete Vγ9Vδ2 TCR (Homo sapiens, UniProt A0JD36+Q99603, T7A); conditions: Mean Fluorescence Index class; cited from earlier work
T3 construct: host or cells: γδ T-cells expressing the complete Vγ9Vδ2 TCR
T3 sequence (Q99603 with tags, fused parts or gaps T7A limits assumed): as the sequence (Q99603 with tags, fused parts or gaps T7A limits assumed) above
T3 sequence (A0JD36 with tags, fused parts or gaps, stated change not applied): as the sequence (A0JD36 with tags, fused parts or gaps) above
T3 sequence (P07766 23-207 partner): as the sequence (P07766 23-207 partner) above
T3 sequence (P09693 23-182 partner): as the sequence (P09693 23-182 partner) above
T3 sequence (P04234 22-171 partner): as the sequence (P04234 22-171 partner) above
T3 sequence (P20963 22-164 partner): as the sequence (P20963 22-164 partner) above

[13] = 10 pM 1D7-5C8, with ABP (50 μM pamidronate pretreatment)
[14] = 100 nM, overnight coculture with Vγ9Vδ2-T cells 1:1

With “1D7-5C8: CD1d-Vδ2 bispecific VHH: 1D7 (N-terminal) joined to 5C8 (C-terminal) with Gly4Ser-linker, SEQ ID NO: 165” the “Lysis of healthy B cells” value (healthy B cells; 10 pM 1D7-5C8, no ABP) was 4.8%±0.6, the “Lysis of healthy B cells” value (healthy B cells; [13]) was 5.4%±4.5 and the “Lysis of CLL cells” value (CLL cells; 10 pM 1D7-5C8, no ABP) was 19.6%±4.8. The “Lysis of CLL cells” value (CLL cells; [13]) was 25.1%±5.2, the “Lysis of Jeko-1 cells” value (Jeko-1 cells [1]; 10 pM 1D7-5C8 with CD1d-blocking antibody (5 μg/mL)) was 13.7%±1.0 and the “Lysis of Jeko-1 cells” value (Jeko-1 cells [1]; 10 pM 1D7-5C8 with CD1d and CD277 simultaneously blocked) was 9.4%±0.8. The “Lysis of Jeko-1 cells” value (Jeko-1 cells [1]; 10 nM, overnight coculture with Vγ9Vδ2-T cells 1:1) was 75.2%±21.0, the “Decline of 1D7-5C8-induced lysis” value (Jeko-1 cells [1]; CD1d and CD277 simultaneously blocked) was 20.2% and the Target cell lysis (Jeko-1 cells [1]; in the absence of Vγ9Vδ2-T cells) was “did not induce target cell lysis”. For the same molecule, the “Decrease of 1D7-5C8-induced lysis” value (Jeko-1 cells [1]; with CD1d-blocking antibody, on average) was 15.9%, the Kd [2] was 0.4 nM and the “Lysis of CD1d high CLL cells” value (primary CLL cells; [14]) was 74.5%±19.1. For the same molecule, the “Lysis of CD1d low CLL cells” value (primary CLL cells; [14]) was 49.3%±6.6, the “IFN-γ production and degranulation of Vγ9Vδ2-T cells” value (Vγ9Vδ2-T cells [3]) was “did not produce IFN-γ and hardly degranulated” and the “Lysis of wildtype MM.1s cells” value [4] was “had no effect on lysis of the wildtype cells”. The “Lysis of CD1d+ MM.1s cells” value [5] was “clearly increased lysis”, the “Upregulation of activation marker CD25 on patient Vγ9Vδ2-T cells” value ([6]; overnight culture of CLL PBMC, 1D7-5C8 50 nM) was 20.8 fold and the “Cytokine production by patient-derived Vγ9Vδ2-T cells” value ([6]; overnight, 50 nM) was “induced production of IFN-γ and TNF-α”. For the same molecule, the “Degranulation of patient-derived Vγ9Vδ2-T cells” value ([6]; overnight, 50 nM) was “triggered Vγ9Vδ2-T cell degranulation”, the “Lysis of autologous CLL cells by patient-derived Vγ9Vδ2-T cells” value (autologous CLL cells) was “enables autologous tumor lysis at relatively low E:T ratios” and the “Percentage of Vγ9Vδ2-T cells within the T cell fraction” value ([7]; IL-2 50 IU/mL and 50 nM 1D7-5C8, baseline 1.2%) was 5.6%±4.7. For the same molecule, the “Percentage of Vγ9Vδ2-T cells with versus without antibody” value ([7]; IL-2 50 IU/mL, 50 nM 1D7-5C8) was 3.1 fold.

In the case of `CC1=C(/C=C/C(C)=C/C=C/C(C)=C/C(=O)O)C(C)(C)CCC1` [ATRA, all-trans retinoic acid], the “ATRA concentration at which upregulation of CD1d expression was detectable” value [8] is reported as 10 pM, the “Direct induction of cell death” value (Jeko-1 cells [9]) is reported as “did not induce cell death directly” and the “Sensitivity of ATRA-pretreated Jeko-1 cells to 1D7-5C8-induced cell death” value (Jeko-1 cells [1]; 100 nM ATRA 48 hours, then Vγ9Vδ2-T cells 1:2 plus 1D7-5C8) is reported as “more sensitive to bispecific antibody 1D7-5C8-induced cell death than control Jeko-1 cells”. For the same molecule, the “CD1d relative MFI” value ([10]; primary CLL cells after 100 nM ATRA) was 504.6±366.0, the “Increase of CD1d levels” value ([10]; 1 nM ATRA) was 2.6 fold and the “Increase of CD1d levels” value ([10]; 100 nM ATRA, on average) was 3.7 fold. For the same molecule, the “Sensitivity of ATRA-pretreated primary CLL cells to 1D7-5C8-mediated cell death” value (primary CLL cells; 100 nM ATRA 48 hours, then Vγ9Vδ2-T cells 1:1 plus 1D7-5C8) was “did sensitize primary CLL cells to bispecific antibody 1D7-5C8-mediated cell death”.

B1: 5C8: Vγ9Vδ2-specific VHH binding to the Vδ2 chain of the TCR, SEQ ID NO: 149 (protein)
VHH: EVQLVESGGGLVQAGGSLRLSCAASGRPFSNYAMGWFRQAPGKEREFVAAISWSGGSTSYADSVKGRFTISRDNAKNTVYLQMNSPKPEDTAIYYCAAQFSGADYGFGRLGIRGYEYDYWGQGTQVTVSS
modifications: antibody sequence
For B1, the “Binding, Vγ9+” value (Vγ9 chain) is listed as “− (“−” indicates a Mean Fluorescence Index (MFI) below 1.5)”, the “Inhibition of phosphoantigen-CD277 mediated Vγ9Vδ2-T cell activation” value (Vγ9Vδ2-T cells [11]) is listed as “not effective in inhibiting phosphoantigen-CD277 mediated Vγ9Vδ2-T cell activation” and the “Binding, Vδ2+” value (Vδ2 chain) is listed as “++ (“++” indicates an MFI above 20)”. The “Binding, Vγ9Vδ2−” value [12] was “− (“−” indicates a Mean Fluorescence Index (MFI) below 1.5)” and the “Binding, Vγ9Vδ2+” value (complete Vγ9Vδ2 TCR) was “++ (“++” indicates an MFI above 20)”.
